A short description of data set [1]: in vitro. The settings on record: human, Caco-2, pH 7.4. As to the method:
Drug penetration test: the Transwell culture plate was retrieved from the incubator. […] All samples were prepared in double parallel. The integrity of the cell monolayer membrane after 2 hours of incubation was assessed using leakage of fluorescein; fluorescein stock solution was diluted with HBSS (25 mM HEPES, pH 7.4) to a final concentration of 100 μM. 100 μL of fluorescein solution was added to each well of the upper Transwell plate and 300 μL of HBSS (25 mM HEPES, pH 7.4) was added to each well of the lower receiving plate; after incubation at 37° C. for 30 min, 80 μL of the solution was pipetted from the upper and lower layers of each well to a new 96-well plate.
The apparent permeability coefficients (Papp, unit: cm/s) of the compounds in Caco-2 cells were calculated from the specific concentrations at the acceptor and donor ends, and the specific calculation formula is as follows: […]
where VA represents the volume of the acceptor end solution (0.3 mL for Ap→Bl, 0.1 mL for Bl→Ap); Area represents the area of the Transwell-96 well plate (0.143 cm^2); time represents the incubation time (unit: s); [drug]acceptor represents the drug concentration (ratio of peak area to internal standard area) at the acceptor end; [drug]initial, donor represents the drug concentration at the donor end (ratio of peak area to internal standard area).
The efflux ratio was calculated as follows: […]
where Papp (B-A) represents the apparent permeability coefficient from base end to top end; Papp (A-B) represents the apparent permeability coefficient from top end to base end.

Data set [2] in a line: in vitro. The settings on record: microsomes, pH 7.4. As to the method:
To examine the in vitro metabolic stability of the test compounds in liver microsomes of different species, representative compounds were selected, and their stability was evaluated by measuring the concentration of the test compounds in the incubation system using LC/MS/MS and calculating their intrinsic clearance in the microsome system.
The method is specifically as follows: each compound was first dissolved in DMSO to prepare a 200 μM working solution and added to the system solution at the time of testing to form a solution with a final concentration of 1 μM.
The microsomes were stored in a −80° C. freezer.
Preparation of incubation system: an incubation system was prepared as described in the table below.
25 μL, of NADPH or phosphate buffered saline was transferred to the incubation system described above, and 2 μL, of 200 μM of the test compound or verapamil was added. The sample with NADPH added was prepared in duplicate; the NADPH negative sample was prepared in single parallel. 30 μL, of suspension was taken at 0.5, 5, 15, 30 and 60 minutes. The reaction system was terminated by adding 180 μL, of acetonitrile containing an internal standard and vortexed for 10 min. […] 100 μL, of the supernatant was transferred to a feeding plate, and 100 μL, of purified water was added. The mixture was well mixed for UPLC-MS/MS analysis.
The results based on the data were obtained by calculation according to the peak area ratio, and the peak area was detected through an extracted ion chromatogram.
The slope value (k) was determined by linear fitting of the natural logarithm of drug elimination percentage over time.

The nature of data set [3]: Stability test in human plasma.
Method: To examine the stability of the test compounds in plasma, representative compounds were selected for evaluation.
Preparation of stock solution: a test compound was dissolved in DMSO to prepare a 1 mM stock solution for later use; Propantheline Bromide was dissolved in acetonitrile to prepare a 1 mM stock solution as a positive control for later use.
To each well was added 2 μL of the stock solution of the test compound and the stock solution of the positive control such that the final concentrations were 5 KM and the concentration of the organic solvent was 0.5%. Each compound was prepared in duplicate, followed by incubation at 37° C. 50 μL of samples were taken from the reaction samples in equal amounts at 0, 30, 60, 120, 180 and 240 minutes, and 450 μL of cold acetonitrile containing an internal standard was added to terminate the reaction. […] 100 μL of the supernatants were transferred to a new plate, dilute with ultra-pure water, and analyzed by LC-MS/MS.
Data results were calculated according to peak area ratios.
The percentage of remaining compound for each time point was calculated as follows:
Remaining percentagemin(%)=peak area ratiosmin/peak area ratiomin×100%
where peak area ratios represents the peak area ratio of the test compound to the internal standard compound at t min; peak area ratiomin represents the peak area ratio of the test compound to the internal standard compound at 0 min (initial).
Data set [4] deals with T1, KRAS G12C protein (Homo sapiens, UniProt P01116, G12C).
T1 construct: H358 cells (ATCC, CRL-5807) expressing KRAS G12C protein; host or cells: H358 (NCI-H358) cells
The data set can be described thus: ERK protein phosphorylation assay (p-ERK) in H358 cells. The data set is classed as cell-based. Also noted: scale not given here. The note with it: H358 cells expressing KRAS G12C protein, 3 h incubation with compound; read-out: IC50, inhibiting phosphorylation of KRAS G12C protein-mediated downstream signaling (p-ERK). As to the method:
The cells were cultured in a 5% CO2 cell incubator for 16 h. The serially diluted compound was added to the cell medium with Echo550 at a final DMSO concentration of 0.5%, and the incubation was continued for 3 h. Then 8% paraformaldehyde (Solarbio, P1112) was added at 40 μL/well, followed by incubation at room temperature for 20 min. After one washing with PBS, cold 100% methanol was added at 40 μL/well for permeabilization for 10 min. […] Washing with PBST was performed 3 times, with 2 min of incubation for each washing. […] Washing with PBST was performed 3 times, with 2 min of incubation for each washing. Finally, the cell culture plate was inverted and centrifuged at 1000 rpm for 1 min, after which fluorescence signals were read using Odyssey CLx.

SMILES strings stand for the structures.

T1 sequence (P01116 1-188 isoform P01116-2 G12C): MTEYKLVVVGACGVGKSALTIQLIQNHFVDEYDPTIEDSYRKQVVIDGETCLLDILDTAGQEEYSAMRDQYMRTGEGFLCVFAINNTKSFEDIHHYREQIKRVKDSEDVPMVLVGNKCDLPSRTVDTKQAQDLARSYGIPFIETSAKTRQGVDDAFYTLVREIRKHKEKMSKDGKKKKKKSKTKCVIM

As usually defined, the Papp A→B is the apparent permeability from the apical to the basolateral side of a cell layer. Usually Papp B→A stands for the apparent permeability from the basolateral to the apical side of a cell layer. In data set [1], `C=CC(=O)N1CCN(c2nc(=O)n(-c3c(C)ccnc3C(C)C)c3nc(-c4c(O)cccc4F)c(F)cc23)[C@@H](C)C1` [AMG510] showed a Papp A→B at 2 h, 10 μM of 0.6 ×10⁻⁶ cm/s and a Papp B→A at 2 h, 10 μM of 27.4 ×10⁻⁶ cm/s.
As a reminder, the half-life is how long it takes for the measured level to halve. The term microsomal CLint denotes a measure of how fast metabolising enzymes remove a compound, apart from limits set by blood flow. In data set [2] (ICR (CD-1), mouse), `C=C(F)C(=O)N1CCN(c2nc(OC[C@@H]3CCCN3C)nc3c2CCN(c2cccc4cccc(Cl)c24)C3)C[C@@H]1CC#N` [MRTX849, reference compound] gave a half-life at 1 μM of 10 min and a microsomal CLint at 1 μM of 139 µL/min/mg. Moreover, in data set [2] (human), the half-life at 1 μM was 19.8 min and the microsomal CLint at 1 μM is 70.2 µL/min/mg.
Regarding `[2H]C([2H])([2H])N1CCC[C@H]1COc1nc2c(c(N3CCN(C(=O)C(=C)F)[C@@H](CC#N)C3)n1)CCN(c1cccc3cccc(Cl)c13)C2` [Compound 18, 2-((S)-4-(7-(8-chloronaphthalen-1-yl)-2-(((S)-1-(methyl-d3)pyrrolidin-2-yl)methoxy)-5,6,7,8-tetrahydropyrido[3,4-d]pyrimidin-4-yl)-1-(2-fluoroacryloyl)piperazin-2-yl)acetonitrile], in data set [2] (ICR (CD-1), mouse), the half-life at 1 μM was 12.3 min and the microsomal CLint at 1 μM was determined as 113 µL/min/mg. In data set [2] (human), this compound came in with a half-life at 1 μM of 19.3 min and a microsomal CLint at 1 μM of 72 µL/min/mg.
In general, efflux ratio refers to a quotient of directional permeabilities that is used to spot active efflux. For `C[C@H]1O[C@@H](O[C@H]2[C@@H](O)C[C@H](O[C@H]3[C@@H](O)C[C@H](O[C@H]4CC[C@@]5(C)[C@H](CC[C@@H]6[C@@H]5C[C@@H](O)[C@]5(C)[C@@H](C7=CC(=O)OC7)CC[C@]65O)C4)O[C@@H]3C)O[C@@H]2C)C[C@H](O)[C@@H]1O` [Digoxin], in data set [1], the Papp A→B at 2 h, 10 μM was determined as 0.25 ×10⁻⁶ cm/s; the Papp B→A at 2 h, 10 μM was 16.4 ×10⁻⁶ cm/s; the efflux ratio at 2 h, 10 μM is 65.2.
In the case of `CC(C)[N+](C)(CCOC(=O)C1c2ccccc2Oc2ccccc21)C(C)C` [Propantheline Bromide, reference compound], the “Remaining percentage (%) 0 min” value in data set [3] (human plasma, 37° C., 0 min) was 100.00%. Further, in data set [3] (human plasma, 37° C., 30 min), the “Remaining percentage (%) 30 min” value was 33.35%. Moreover, the “Remaining percentage (%) 60 min” value in data set [3] (human plasma, 37° C., 60 min) amounted to 7.71%. For the same compound, the “Remaining percentage (%) 120 min” value in data set [3] (human plasma, 37° C., 120 min) is recorded as 0.15%. Besides, the “Remaining percentage (%) 180 min” value in data set [3] (human plasma, 37° C., 180 min) is “BLOD”. In addition, the “Remaining percentage (%) 240 min” value in data set [3] (human plasma, 37° C., 240 min) is on record as “BLOD”. This compound also displayed a half-life at 5 μM in data set [3] (human, plasma) of 19 min.
On to `COCCc1ccc(OCC(O)CNC(C)C)cc1` (centres unmarked) [Metoprolol], for which, in data set [1], the Papp A→B at 2 h, 10 μM was determined as 22.6 ×10⁻⁶ cm/s; the Papp B→A at 2 h, 10 μM is 19.5 ×10⁻⁶ cm/s; the efflux ratio at 2 h, 10 μM worked out at 0.86.
The IC50 is the concentration at which inhibition is half-maximal. As for `[2H]C([2H])([2H])N1CCC[C@H]1COc1nc2c(c(N3CCN(C(=O)C=C)[C@@H](CC#N)C3)n1)CCN(c1cncc3cccc(C)c13)C2` [Compound 30, 2-((S)-1-acryloyl-4-(2-(((S)-1-(methyl-d3)pyrrolidin-2-yl)methoxy)-7-(5-methylisoquinolin-4-yl)-5,6,7,8-tetrahydropyrido[3,4-d]pyrimidin-4-yl)piperazin-2-yl)acetonitrile], in data set [4], the IC50 is less than 1000 nM.
In the case of `[2H]C([2H])([2H])c1cccc2cccc(N3CCc4c(nc(OC[C@@H]5CCCN5C)nc4N4CCN(C(=O)C(=C)F)[C@@H](CC#N)C4)C3)c12` [Compound 2, 2-((S)-1-(2-fluoroacryloyl)-4-(7-(8-(methyl-d3)naphthalen-1-yl)-2-(((S)-1-methylpyrrolidin-2-yl)methoxy)-5,6,7,8-tetrahydropyrido[3,4-d]pyrimidin-4-yl)piperazin-2-yl)acetonitrile], in data set [4], the IC50 was less than 1000 nM.
Regarding `[2H]C([2H])([2H])c1cccc2cccc(N3CCc4c(nc(OC[C@@H]5CCCN5C([2H])([2H])[2H])nc4N4CCN(C(=O)C=C)[C@@H](C)C4)C3)c12` [Compound 21, 1-((S)-2-methyl-4-(7-(8-(methyl-d3)naphthalen-1-yl)-2-(((S)-1-(methyl-d3)pyrrolidin-2-yl)methoxy)-5,6,7,8-tetrahydropyrido[3,4-d]pyrimidin-4-yl)piperazin-1-yl)-2-propen-1-one], the IC50 in data set [4] is less than 1000 nM.
Take `[2H]C([2H])([2H])N1CCC[C@H]1COc1nc2c(c(N3CCN(C(=O)C(=C)F)[C@@H](CC#N)C3)n1)CCN(c1cccc3cccc([14CH3])c13)C2` [Compound 29, 2-((S)-1-(2-fluoroacryloyl)-4-(2-(((S)-1-(methyl-d3)pyrrolidin-2-yl)methoxy)-7-(8-(methyl-^14C)naphthalen-1-yl)-5,6,7,8-tetrahydropyrido[3,4-d]pyrimidin-4-yl)piperazin-2-yl)acetonitrile]: the IC50 in data set [4] was less than 1000 nM.
Consider `C=C(F)C(=O)N1CCN(c2nc(OC[C@@H]3CCCN3C)nc3c2CCN(c2cncc4cccc([13CH3])c24)C3)C[C@@H]1CC#N` [Compound 16, 2-((S)-1-(2-fluoroacryloyl)-4-(7-(5-(methyl-^13C)isoquinolin-4-yl)-2-(((S)-1-methylpyrrolidin-2-yl)methoxy)-5,6,7,8-tetrahydropyrido[3,4-d]pyrimidin-4-yl)piperazin-2-yl)acetonitrile], for which the IC50 in data set [4] was less than 1000 nM.
In the case of `[2H]C([2H])([2H])c1cccc2cccc(N3CCc4c(nc(OC[C@@H]5CCCN5C)nc4N4CCN(C(=O)C=C)C[C@@H]4C)C3)c12` [Compound 8, 1-((S)-3-methyl-4-(7-(8-(methyl-d3)naphthalen-1-yl)-2-(((S)-1-methylpyrrolidin-2-yl)methoxy)-5,6,7,8-tetrahydropyrido[3,4-d]pyrimidin-4-yl)piperazin-1-yl)-2-propen-1-one], the IC50 in data set [4] was less than 1000 nM.

Source of the values: patent US20230257374A1, “NOVEL KRAS G12C PROTEIN INHIBITOR, PREPARATION METHOD THEREFOR, AND USE THEREOF” (INNOVENT BIOLOGICS (SUZHOU) CO., LTD., priority 2019, published 2023).
